# In ChEMBL document CHEMBL4411307, “N,N'-diaryl-bishydrazones in a biphenyl platform: Broad spectrum antifungal agents” (Eur J Med Chem, 2019):
# Calls of active or inactive are those of the source. No cut-off for these calls is given here.
# Columns and labels:
# Candida parapsilosis = assay: Antifungal activity against Candida parapsilosis ATCC 22019 measured after 48 hrs by CLSI M27-A3 protocol based method; type: functional; conditions: Lodderomyces parapsilosis, ATCC 22019, 48 h
# [1] = Selectivity index, ratio of CC50 for human A549 cells to MIC for Candida krusei ATCC 6258; type: toxicity; conditions: read-out: Selectivity Index
# Listeria monocytogenes = assay: Antibacterial activity against Listeria monocytogenes; type: functional, organism-based
# [2] = Selectivity index, ratio of CC50 for human A549 cells to MIC for Candida parapsilosis ATCC 22019; type: toxicity; conditions: read-out: Selectivity Index
# [3] = Selectivity index, ratio of CC50 for human A549 cells to MIC for Aspergillus terreus ATCC MYA-3633; type: toxicity; conditions: read-out: Selectivity Index
# Candida albicans [4] = assay: Antifungal activity against fluconazole/ITC-resistant Candida albicans ATCC MYA-1237 measured after 48 hrs by CLSI M27-A3 protocol based method; type: functional; conditions: ATCC MYA-1237, 48 h
# [5] = Selectivity index, ratio of compound concentration showing <20 to <30% hemolysis in mouse RBC to MIC for Candida krusei ATCC 6258; type: toxicity; conditions: mouse red blood cells (RBC), read-out: Selectivity Index
# Candida albicans [6] = assay: Antifungal activity against fluconazole/ITC-resistant Candida albicans ATCC MYA-1003 measured after 48 hrs by CLSI M27-A3 protocol based method; type: functional; conditions: ATCC MYA-1003, 48 h
# [7] = Selectivity index, ratio of compound concentration showing <20 to <30% hemolysis in mouse RBC to MIC for Aspergillus terreus ATCC MYA-3633; type: toxicity; conditions: mouse red blood cells (RBC), read-out: Selectivity Index
# [8] = Selectivity index, ratio of compound concentration showing <20 to <30% hemolysis in mouse RBC to MIC for Candida glabrata ATCC 2001; type: toxicity; conditions: mouse red blood cells (RBC), read-out: Selectivity Index
# [9] = Selectivity index, ratio of CC50 for human A549 cells to MIC for fluconazole/ITC-resistant Candida albicans ATCC 10231; type: toxicity; conditions: read-out: Selectivity Index
# Nakaseomyces glabratus = assay: Antifungal activity against Candida glabrata ATCC 2001 measured after 48 hrs by CLSI M27-A3 protocol based method; type: functional; conditions: CBS 138, 48 h
# Candida albicans [10] = assay: Antifungal activity against fluconazole/ITC-susceptible Candida albicans ATCC MYA-2876 measured after 48 hrs by CLSI M27-A3 protocol based method; type: functional; conditions: ATCC MYA-2876, 48 h
# BEAS-2B = assay: Cytotoxicity against human BEAS2B cells after 24 hrs by resazurin based assay; type: cell-based
# [11] = Selectivity index, ratio of compound concentration showing <20 to <30% hemolysis in mouse RBC to MIC for Aspergillus nidulans ATCC 38163; type: toxicity; conditions: mouse red blood cells (RBC), read-out: Selectivity Index
# [12] = Selectivity index, ratio of compound concentration showing <20 to <30% hemolysis in mouse RBC to MIC for fluconazole/ITC-resistant Candida albicans ATCC MYA-1237; type: toxicity; conditions: mouse red blood cells (RBC), read-out: Selectivity Index
# [13] = Selectivity index, ratio of CC50 for human A549 cells to MIC for fluconazole/ITC-resistant Candida albicans ATCC 90819; type: toxicity; conditions: read-out: Selectivity Index
# A549 = assay: Cytotoxicity against human A549 cells after 24 hrs by resazurin based assay; type: cell-based; conditions: a549, 24 h
# [14] = Selectivity index, ratio of compound concentration showing <20 to <30% hemolysis in mouse RBC to MIC for fluconazole/ITC-susceptible Candida albicans ATCC MYA-2310; type: toxicity; conditions: mouse red blood cells (RBC), read-out: Selectivity Index
# [15] = Selectivity index, ratio of compound concentration showing <20 to <30% hemolysis in mouse RBC to MIC for fluconazole/ITC-resistant Candida albicans ATCC 10231; type: toxicity; conditions: red blood cells (erythrocytes), read-out: Selectivity Index
# Pichia kudriavzevii = assay: Antifungal activity against Candida krusei ATCC 6258 measured after 48 hrs by CLSI M27-A3 protocol based method; type: functional; conditions: ATCC 6258, 48 h
# [16] = Selectivity index, ratio of compound concentration showing <20 to <30% hemolysis in mouse RBC to MIC for fluconazole/ITC-resistant Candida albicans ATCC 90819; type: toxicity; conditions: red blood cells (erythrocytes), read-out: Selectivity Index
# [17] = Hemolytic activity in mouse RBC at […] ug/ml after 1 hr relative to control; type: ADME, cell-based, Erythrocyte; conditions: red blood cells (erythrocytes), read-out: Activity
# Enterococcus = assay: Antibacterial activity against vancomycin-resistant Enterococcus; type: functional, organism-based
# Candida albicans [18] = assay: Antifungal activity against fluconazole/ITC-resistant Candida albicans ATCC 64124 measured after 48 hrs by CLSI M27-A3 protocol based method; type: functional; conditions: ATCC 64124, 48 h
# [19] = Selectivity index, ratio of CC50 for human A549 cells to MIC for fluconazole/ITC-resistant Candida albicans ATCC 64124; type: toxicity; conditions: read-out: Selectivity Index
# [20] = Hemolytic activity in mouse RBC at 3.9 ug/ml after 1 hr relative to control; type: ADME, cell-based, Erythrocyte; conditions: red blood cells (erythrocytes), read-out: Activity
# [21] = Selectivity index, ratio of CC50 for human A549 cells to MIC for Candida glabrata ATCC 2001; type: toxicity; conditions: read-out: Selectivity Index
# [22] = Selectivity index, ratio of CC50 for human A549 cells to MIC for fluconazole/ITC-susceptible Candida albicans ATCC MYA-2310; type: toxicity; conditions: read-out: Selectivity Index
# [23] = Selectivity index, ratio of CC50 for human A549 cells to MIC for fluconazole/ITC-resistant Candida albicans ATCC MYA-1237; type: toxicity; conditions: read-out: Selectivity Index
# [24] = Selectivity index, ratio of compound concentration showing <20 to <30% hemolysis in mouse RBC to MIC for Candida parapsilosis ATCC 22019; type: toxicity; conditions: mouse red blood cells (RBC), read-out: Selectivity Index
# [25] = Selectivity index, ratio of CC50 for human A549 cells to MIC for Aspergillus flavus ATCC MYA-3631; type: toxicity; conditions: read-out: Selectivity Index
# [26] = target: Voltage-gated inwardly rectifying potassium channel KCNH2 (Homo sapiens, UniProt Q12809); assay: Inhibition of [3H]-dofetilide binding to human ERG expressed in HEK293 cell membranes measured after 1 hr by liquid scintillation counting method
# [27] = Hemolytic activity in mouse RBC at 62.5 ug/ml after 1 hr relative to control; type: ADME, cell-based, Erythrocyte; conditions: red blood cells (erythrocytes), read-out: Activity
# [28] = Hemolytic activity in mouse RBC at 1.95 ug/ml after 1 hr relative to control; type: ADME, cell-based, Erythrocyte; conditions: red blood cells (erythrocytes), read-out: Activity
# Aspergillus terreus = assay: Antifungal activity against Aspergillus terreus ATCC MYA-3633 measured after 48 hrs by CLSI M38-A2 protocol based method; type: functional; conditions: ATCC MYA-3633, 48 h
# Aspergillus nidulans = assay: Antifungal activity against Aspergillus nidulans ATCC 38163 measured after 48 hrs by CLSI M38-A2 protocol based method; type: functional; conditions: ATCC 38163, 48 h
# [29] = Hemolytic activity in mouse RBC at […] after 1 hr relative to control; type: ADME, cell-based, Erythrocyte; conditions: red blood cells (erythrocytes), read-out: Activity; note: tested at 0.48 µg/mL
# Candida albicans [30] = assay: Antifungal activity against fluconazole/ITC-resistant Candida albicans ATCC 90819 measured after 48 hrs by CLSI M27-A3 protocol based method; type: functional; conditions: ATCC 90819, 48 h
# [31] = Selectivity index, ratio of CC50 for human A549 cells to MIC for Aspergillus nidulans ATCC 38163; type: toxicity; conditions: read-out: Selectivity Index
# [32] = Hemolytic activity in mouse RBC at 7.8 ug/ml after 1 hr relative to control; type: ADME, cell-based, Erythrocyte; conditions: red blood cells (erythrocytes), read-out: Activity
# [33] = Selectivity index, ratio of CC50 for human A549 cells to MIC for fluconazole/ITC-resistant Candida albicans ATCC MYA-1003; type: toxicity; conditions: read-out: Selectivity Index
# Aspergillus flavus = assay: Antifungal activity against Aspergillus flavus ATCC MYA-3631 measured after 48 hrs by CLSI M38-A2 protocol based method; type: functional; conditions: ATCC MYA-3631, 48 h
# Candida albicans [34] = assay: Antifungal activity against fluconazole/ITC-resistant Candida albicans ATCC 10231 measured after 48 hrs by CLSI M27-A3 protocol based method; type: functional; conditions: ATCC 10231, 48 h
# [35] = Selectivity index, ratio of CC50 for human A549 cells to MIC for fluconazole/ITC-susceptible Candida albicans ATCC MYA-2876; type: toxicity; conditions: read-out: Selectivity Index
# [36] = Selectivity index, ratio of compound concentration showing <20 to <30% hemolysis in mouse RBC to MIC for fluconazole/ITC-resistant Candida albicans ATCC 64124; type: toxicity; conditions: red blood cells (erythrocytes), read-out: Selectivity Index
# [37] = Selectivity index, ratio of compound concentration showing <20 to <30% hemolysis in mouse RBC to MIC for fluconazole/ITC-susceptible Candida albicans ATCC MYA-2876; type: toxicity; conditions: red blood cells (erythrocytes), read-out: Selectivity Index
# Staphylococcus aureus = assay: Antibacterial activity against methicillin-resistant Staphylococcus aureus; type: functional, organism-based
# [38] = Hemolytic activity in mouse RBC at 31.3 ug/ml after 1 hr relative to control; type: ADME, cell-based, Erythrocyte; conditions: red blood cells (erythrocytes), read-out: Activity
# [39] = Selectivity index, ratio of compound concentration showing <20 to <30% hemolysis in mouse RBC to MIC for Aspergillus flavus ATCC MYA-3631; type: toxicity; conditions: mouse red blood cells (RBC), read-out: Selectivity Index
# Candida albicans [40] = assay: Antifungal activity against fluconazole/ITC-susceptible Candida albicans ATCC MYA-2310 measured after 48 hrs by CLSI M27-A3 protocol based method; type: functional; conditions: ATCC MYA-2310, 48 h
# [41] = Selectivity index, ratio of compound concentration showing <20 to <30% hemolysis in mouse RBC to MIC for fluconazole/ITC-resistant Candida albicans ATCC MYA-1003; type: toxicity; conditions: mouse red blood cells (RBC), read-out: Selectivity Index
# Sequence of Voltage-gated inwardly rectifying potassium channel KCNH2 (Q12809 whole entry): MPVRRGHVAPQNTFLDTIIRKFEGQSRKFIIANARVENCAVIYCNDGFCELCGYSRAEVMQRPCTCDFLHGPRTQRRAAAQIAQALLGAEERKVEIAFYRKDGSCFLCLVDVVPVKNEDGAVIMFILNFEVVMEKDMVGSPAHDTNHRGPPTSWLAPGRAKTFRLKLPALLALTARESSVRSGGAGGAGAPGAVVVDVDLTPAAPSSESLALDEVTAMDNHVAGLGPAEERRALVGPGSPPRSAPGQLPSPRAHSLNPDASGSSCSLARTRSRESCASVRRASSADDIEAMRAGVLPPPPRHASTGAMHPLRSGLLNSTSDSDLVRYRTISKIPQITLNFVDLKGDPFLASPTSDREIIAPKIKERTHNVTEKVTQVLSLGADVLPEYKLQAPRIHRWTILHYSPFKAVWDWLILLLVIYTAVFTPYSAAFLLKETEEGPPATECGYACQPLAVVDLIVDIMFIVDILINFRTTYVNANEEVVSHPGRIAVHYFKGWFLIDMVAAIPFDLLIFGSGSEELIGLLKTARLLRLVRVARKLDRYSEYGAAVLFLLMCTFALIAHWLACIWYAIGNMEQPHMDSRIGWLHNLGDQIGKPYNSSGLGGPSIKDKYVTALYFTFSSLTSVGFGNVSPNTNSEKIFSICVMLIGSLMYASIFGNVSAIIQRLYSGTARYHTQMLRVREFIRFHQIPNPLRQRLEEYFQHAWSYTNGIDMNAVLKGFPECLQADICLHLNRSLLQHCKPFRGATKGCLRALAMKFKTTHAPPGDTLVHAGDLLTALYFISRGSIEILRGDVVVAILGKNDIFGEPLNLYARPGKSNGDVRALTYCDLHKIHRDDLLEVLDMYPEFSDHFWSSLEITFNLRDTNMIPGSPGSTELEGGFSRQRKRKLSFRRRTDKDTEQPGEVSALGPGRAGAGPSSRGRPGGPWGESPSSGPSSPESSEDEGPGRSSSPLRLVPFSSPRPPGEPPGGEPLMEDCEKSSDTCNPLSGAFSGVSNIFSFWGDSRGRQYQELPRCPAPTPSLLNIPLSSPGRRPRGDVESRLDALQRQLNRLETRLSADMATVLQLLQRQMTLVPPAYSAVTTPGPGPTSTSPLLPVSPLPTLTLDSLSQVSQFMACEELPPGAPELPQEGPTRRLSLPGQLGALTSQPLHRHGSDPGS
structure (smiles),measurement,setting,value
Fc1ccc(N/N=C/c2ccc(-c3cccc(/C=N/Nc4ccc(F)cc4)c3)cc2)cc1,MIC,Candida parapsilosis,31.3 µg/mL
same,selectivity ratio,[1],1
same,Activity,Listeria monocytogenes,inactive
same,selectivity ratio,[2],1
same,selectivity ratio,[3],1
same,MIC,Candida albicans [4],15.6 µg/mL
same,selectivity ratio,[5],1 to 32
same,MIC,Candida albicans [6],3.9 µg/mL
same,selectivity ratio,[7],1 to 32
same,selectivity ratio,[8],1 to 32
same,selectivity ratio,[9],16
same,MIC,Nakaseomyces glabratus,> 31.3 µg/mL
same,MIC,Candida albicans [10],7.8 µg/mL
same,CC50,BEAS-2B,> 31 µg/mL
same,selectivity ratio,[11],1 to 32
same,selectivity ratio,[12],1 to 32
same,selectivity ratio,[13],1
same,CC50,A549,> 31 µg/mL
same,selectivity ratio,[14],1 to 32
same,selectivity ratio,[15],1 to 32
same,MIC,Pichia kudriavzevii,> 31.3 µg/mL
same,selectivity ratio,[16],1 to 32
same,"hemolysis at 1 h, 15.6 ug/ml",[17]; at 15.6 µg/mL,9.9%
same,"hemolysis at 1 h, 0.975 ug/ml",[17],0%
same,Activity,Enterococcus,inactive
same,MIC,Candida albicans [18],15.6 µg/mL
same,selectivity ratio,[19],2
same,"hemolysis at 1 h, 3.9 ug/ml",[20],4.3%
same,selectivity ratio,[21],1
same,selectivity ratio,[22],4
same,selectivity ratio,[23],2
same,selectivity ratio,[24],1 to 32
same,selectivity ratio,[25],2
same,IC50,[26],> 30 µM
same,"hemolysis at 1 h, 62.5 ug/ml",[27],26.1%
same,"hemolysis at 1 h, 1.95 ug/ml",[28],6%
same,MIC,Aspergillus terreus,> 31.3 µg/mL
same,MIC,Aspergillus nidulans,3.9 µg/mL
same,"hemolysis at 1 h, […]",[29],0.1%
same,MIC,Candida albicans [30],> 31.3 µg/mL
same,selectivity ratio,[31],8
same,"hemolysis at 1 h, 7.8 ug/ml",[32],9.5%
same,selectivity ratio,[33],8
same,MIC,Aspergillus flavus,15.6 µg/mL
same,MIC,Candida albicans [34],1.95 to 3.9 µg/mL
same,selectivity ratio,[35],4
same,selectivity ratio,[36],1 to 32
same,selectivity ratio,[37],1 to 32
same,Activity,Staphylococcus aureus,inactive
same,"hemolysis at 1 h, 31.3 ug/ml",[38],14.4%
same,selectivity ratio,[39],1 to 32
same,MIC,Candida albicans [40],7.8 µg/mL
same,selectivity ratio,[41],1 to 32
